The source of these data is ChEMBL document CHEMBL1201862, “PubChem BioAssay data set” (2004).

Structures are written as SMILES. “And” between values parts separate entries of the source, which are not always exact repeats. Equal values may be shown once.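 Dose response: 5 concentrations. Exposure: 48 h. Format: 96-well plates. Endpoint: linear interpolation; highest concentration if not reached. GI50: concentration for 50% inhibition of growth.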 The source made the active and inactive calls. Rule as the data show it: active = GI50 up to about 1.1 µM and inactive = higher.

Among the test systems are OVCAR-5; NCI-H23; HL-60; UACC-62; UO-31; SNB-75; NCI-H460; SW-620; SNB-19; HCT-15; OVCAR-8; M14; OVCAR-3; EKVX; IGROV-1; COLO 205; SF-268; U-251; HCT-116; MOLT-4.
Assay in all cases: NCI tumour cell line growth inhibition, 48 h

On to `CCN1CCC(O)(C(C(=O)O)c2ccccc2)CC1` (configuration not stated), for which the GI50 in the test with OVCAR-5, with NCI-H23, with HL-60, in the test with UACC-62, in the test on UO-31 and in the test on SNB-75 was > 100 µM (inactive) each time. The GI50 was > 100 µM (inactive) in the test with NCI-H460; > 100 µM (inactive) with SW-620; > 100 µM (inactive) in the test on SNB-19; greater than 100 µM in the test on HCT-15; > 100 µM (inactive) with OVCAR-8; > 100 µM (inactive) in the test with M14. Further, the GI50 in the test with OVCAR-3, in the test with EKVX, in the test with IGROV-1, in the test with COLO 205, with SF-268 and in the test with U-251 was > 100 µM (inactive) in each case.

Regarding `CCOC(=O)C(C)NC(=O)NC12CC3CC(CC(F)(C3)C1)C2` (configuration not stated), the GI50 in the test on HCT-116 is > 100 µM (inactive); in the test on OVCAR-5, > 100 µM (inactive); in the test with NCI-H23 it was > 100 µM (inactive); in the test on HL-60, 61.5 µM (inactive); with UACC-62, > 100 µM (inactive); with UO-31 it was 40.2 µM (inactive). Further, the GI50 is 65.3 µM (inactive) with SNB-75; > 100 µM (inactive) with NCI-H460; > 100 µM (inactive) with SW-620; > 100 µM (inactive) in the test with SNB-19; 62.1 µM (inactive) in the test on MOLT-4; > 100 µM (inactive) in the test on OVCAR-8. Moreover, the GI50 was 63.8 µM (inactive) in the test with M14; 42 µM (inactive) in the test on OVCAR-3; > 100 µM (inactive) with EKVX; > 100 µM (inactive) in the test with IGROV-1; 41.7 µM (inactive) in the test with COLO 205; > 100 µM (inactive) with U-251.

For the compound `C=CCc1c(O)c2c(c3oc(=O)cc(C)c13)CC(C)O2` (configuration not stated), the GI50 in the test on HCT-116 is > 100 µM (inactive); with OVCAR-5 it was > 100 µM (inactive); in the test on NCI-H23 it was > 100 µM (inactive); in the test with HL-60, 86.7 µM (inactive); with UACC-62, > 100 µM (inactive); in the test on UO-31, 68.9 µM (inactive). Also, the GI50 is > 100 µM (inactive) in the test on SNB-75; 52.5 µM (inactive) with NCI-H460; > 100 µM (inactive) with SW-620; > 100 µM (inactive) in the test with SNB-19; 56.5 µM (inactive) in the test with MOLT-4; greater than 100 µM in the test on HCT-15. For the same compound, the GI50 in the test with OVCAR-8 is 65.3 µM (inactive); in the test on M14, > 100 µM (inactive); in the test with OVCAR-3, > 100 µM (inactive); in the test on EKVX it was > 100 µM (inactive); in the test with IGROV-1, 20.2 µM (inactive); in the test with SF-268, > 100 µM (inactive). Also, the GI50 in the test on U-251 was > 100 µM (inactive).

`CC(=O)OC1CCC2(C)C3CCC4(C)C(c5ccc(=O)oc5)CC5OC54C3CCC2(O)C1` (configuration not stated): the GI50 was 0.706 µM (active) with HCT-116; 5.81 µM (inactive) with OVCAR-5; 0.649 µM (active) in the test with NCI-H23; 0.522 µM (active) with HL-60; 2.69 µM (inactive) with UACC-62; 2.49 µM (inactive) with UO-31. For the same compound, the GI50 was 1.06 µM (active) in the test on SNB-75; 0.579 µM (active) with NCI-H460; 1.21 µM (inactive) in the test on SW-620; 5.18 µM (inactive) in the test on SNB-19; 0.348 µM (active) in the test on MOLT-4; 1.9 µM with HCT-15. Further, the GI50 with OVCAR-8 is 1.15 µM (inactive); with OVCAR-3, 0.59 µM (active); in the test on EKVX, 0.887 µM (active); with IGROV-1 it was 2.61 µM (inactive); in the test on COLO 205, 4.28 µM (inactive); with SF-268, 0.621 µM (active). In addition, in the test on U-251, the GI50 is 2.21 µM (inactive).

For `Cc1cn(C2CC(N)C(C(=O)NCC(=O)O)O2)c(=O)[nH]c1=O` (configuration not stated), the GI50 in the test with HCT-116, in the test with OVCAR-5, in the test with NCI-H23, in the test with HL-60, with UACC-62 and in the test on UO-31 was > 100 µM (inactive) in each case. The GI50 is > 100 µM (inactive) in the test with SNB-75; > 100 µM (inactive) in the test with NCI-H460; > 100 µM (inactive) with SW-620; > 100 µM (inactive) in the test with SNB-19; > 100 µM (inactive) in the test with MOLT-4; greater than 100 µM in the test with HCT-15. Besides, the GI50 in the test with M14, in the test with OVCAR-3, with EKVX, with IGROV-1, in the test with COLO 205 and with SF-268 was > 100 µM (inactive) throughout. Also, the GI50 in the test on U-251 is > 100 µM (inactive).

Regarding `NC(=O)CCC(NC(=O)c1c2ccccc2nc2ccccc12)C(=O)O` (configuration not stated), the GI50 in the test on HCT-116, in the test on OVCAR-5, in the test with NCI-H23, in the test with UACC-62, in the test on UO-31 and with SNB-75 was > 100 µM (inactive) in each case. Also, the GI50 in the test with NCI-H460 is > 100 µM (inactive); in the test with SW-620, > 100 µM (inactive); in the test with SNB-19, > 100 µM (inactive); with MOLT-4, > 100 µM (inactive); with HCT-15, greater than 100 µM; in the test on OVCAR-8, > 100 µM (inactive). The GI50 with M14, with OVCAR-3, in the test on EKVX, in the test with IGROV-1, in the test on COLO 205 and in the test with SF-268 was > 100 µM (inactive) in each case. Moreover, the GI50 in the test with U-251 was > 100 µM (inactive).

As for `O=[N+]([O-])c1cccc(-c2ccc([C@H]3CC(c4ccc(Cl)cc4)=NN3)o2)c1`, the GI50 is 15.2 µM (inactive) with HCT-116; 31.7 µM (inactive) in the test on OVCAR-5; 0.893 µM (active) in the test with HL-60; 16.3 µM (inactive) in the test with UACC-62; 22.1 µM (inactive) in the test on UO-31; 14.7 µM (inactive) in the test with SNB-75. In addition, the GI50 in the test on SW-620 was 19.5 µM (inactive); with SNB-19 it was 38.4 µM (inactive); in the test on MOLT-4 it was 0.891 µM (active); in the test on HCT-15, 5.15 µM; with OVCAR-8, 12.3 µM (inactive); with M14 it was 30.1 µM (inactive). The GI50 in the test on OVCAR-3 is 18.9 µM (inactive); in the test on EKVX, 70 µM (inactive); in the test with IGROV-1, 21 µM (inactive); in the test with COLO 205, > 100 µM (inactive); in the test with SF-268, 27 µM (inactive).

Turning to `COC1OC2COC(c3ccccc3)OC2C(OC(=S)c2ccccc2)C1O` (configuration not stated), the GI50 is > 100 µM (inactive) in the test with OVCAR-5; 82.4 µM (inactive) with NCI-H23; > 100 µM (inactive) in the test with UACC-62; > 100 µM (inactive) in the test on UO-31; 65.9 µM (inactive) with NCI-H460; > 100 µM (inactive) with SW-620. The GI50 in the test with SNB-19 was > 100 µM (inactive); in the test with MOLT-4, > 100 µM (inactive); in the test with HCT-15, greater than 100 µM; in the test with OVCAR-8, 16.9 µM (inactive); in the test on M14 it was > 100 µM (inactive); in the test with OVCAR-3, > 100 µM (inactive). The GI50 in the test with EKVX was 0.358 µM (active); in the test with IGROV-1 it was > 100 µM (inactive); with COLO 205, > 100 µM (inactive); in the test on SF-268 it was 27 µM (inactive); in the test on U-251, 11.5 µM (inactive).

For the compound `O=C(NC1C=Nc2ccc([N+](=O)[O-])cc2NC1=O)c1cc(Cl)cc([N+](=O)[O-])c1` (configuration not stated), the GI50 was > 100 µM (inactive) in the test with HCT-116; > 100 µM (inactive) in the test with OVCAR-5; > 100 µM (inactive) in the test with NCI-H23; 12.9 µM (inactive) in the test with HL-60; 44.2 µM (inactive) in the test on UACC-62; > 100 µM (inactive) with UO-31. In addition, the GI50 in the test with SNB-75 is > 100 µM (inactive); in the test with NCI-H460, > 100 µM (inactive); in the test with SW-620, > 100 µM (inactive); with SNB-19 it was > 100 µM (inactive); with MOLT-4 it was 41.6 µM (inactive); in the test with HCT-15, greater than 100 µM. Further, the GI50 in the test on OVCAR-8 is > 100 µM (inactive); in the test with M14 it was > 100 µM (inactive); in the test with EKVX, 94.8 µM (inactive); with IGROV-1, > 100 µM (inactive); in the test on COLO 205 it was 59.3 µM (inactive); in the test on SF-268, > 100 µM (inactive). In addition, the GI50 in the test on U-251 is > 100 µM (inactive).

Regarding `Oc1ccc2ccccc2c1/N=N/c1ccccc1`, the GI50 with HCT-116 was > 100 µM (inactive); in the test on OVCAR-5, > 100 µM (inactive); in the test with NCI-H23, > 100 µM (inactive); in the test with HL-60 it was > 100 µM (inactive) and 73.1 µM (inactive); in the test with UACC-62, > 100 µM (inactive); in the test with UO-31, > 100 µM (inactive). Besides, the GI50 with SNB-75 is > 100 µM (inactive); in the test on NCI-H460, > 100 µM (inactive); in the test with SW-620, > 100 µM (inactive); with SNB-19, > 100 µM (inactive) and > 72.8 µM (inactive); in the test on MOLT-4, > 100 µM (inactive); in the test with HCT-15, greater than 100 µM. Moreover, the GI50 is 56.1 µM (inactive) in the test with OVCAR-8; > 100 µM (inactive) with M14; 51.6 µM (inactive) in the test with OVCAR-3; > 69.2 µM (inactive) in the test on IGROV-1; > 100 µM (inactive) in the test with COLO 205; 51.9 µM (inactive) and > 56 µM (inactive) in the test on U-251.

Turning to `N#CN=C(NCCO)NCCO`, the GI50 in the test with HCT-116, in the test on OVCAR-5, with HL-60, with UACC-62, in the test on UO-31 and in the test with SNB-75 was > 100 µM (inactive) throughout. For the same compound, the GI50 in the test on NCI-H460 is > 100 µM (inactive); in the test with SW-620 it was > 100 µM (inactive); in the test on SNB-19 it was > 100 µM (inactive); with MOLT-4 it was > 100 µM (inactive); in the test with HCT-15, greater than 100 µM; in the test on OVCAR-8, > 100 µM (inactive). The GI50 in the test on M14, in the test with OVCAR-3, in the test with EKVX, in the test with IGROV-1, with COLO 205 and with SF-268 was > 100 µM (inactive) in each case. The GI50 in the test with U-251 is > 100 µM (inactive).
